The experiment deals with T1, cloned human GLP-1 receptor (Homo sapiens, UniProt P43220).
T1 construct: expressed in transfected cells; host or cells: CHO or HEK-293 cells
Description: Functional cell-based assay: cAMP functional assay. As to conditions: for Emax: 0.5 h, percentage relative to maximal GLP-1-induced cAMP accumulation, na = not active in the assay, read-out: % activation. Summed up:
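Monolayer cells incubated 30 min at 37 °C with compounds (0.0001–100 μM) in IMDM containing 100 μM RO 20-1724 PDE inhibitor, 0.1% BSA and 2% DMSO. cAMP measured by HTRF.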

EC50 and Emax data for 17 molecules are collected here from US7906507B2, “Oxadiazoanthracene compounds for the treatment of diabetes” (TransTech Pharma, Inc., priority 2008, dated 2011).

T1 sequence (P43220 24-463): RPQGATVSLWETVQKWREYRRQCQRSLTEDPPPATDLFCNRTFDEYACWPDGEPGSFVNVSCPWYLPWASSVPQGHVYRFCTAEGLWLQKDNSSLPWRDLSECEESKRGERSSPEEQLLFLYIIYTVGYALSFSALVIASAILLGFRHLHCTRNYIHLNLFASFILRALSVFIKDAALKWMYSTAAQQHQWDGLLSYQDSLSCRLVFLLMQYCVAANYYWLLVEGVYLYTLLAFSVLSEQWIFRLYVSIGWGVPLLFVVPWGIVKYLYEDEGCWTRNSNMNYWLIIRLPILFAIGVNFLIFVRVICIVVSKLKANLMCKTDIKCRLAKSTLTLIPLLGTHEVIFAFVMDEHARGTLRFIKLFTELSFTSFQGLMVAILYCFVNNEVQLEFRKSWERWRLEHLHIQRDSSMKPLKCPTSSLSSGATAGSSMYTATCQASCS

Take `CC(C)OC(=O)N1Cc2cc3c(cc2C[C@H]1C(=O)N[C@@H](Cc1ccc(-c2ccc(C#N)cc2)cc1)C(=O)O)N(C)C(=O)C(c1ccc(OCc2ccc(Cl)c(Cl)c2)cc1)O3` (stereo partly drawn) [Example 68, (S)-7-[(S)-1-Carboxy-2-(4′-cyano-biphenyl-4-yl)-ethylcarbamoyl]-3-[4-(3,4-dichloro-benzyloxy)-phenyl]-1-methyl-2-oxo-1,2,3,5,7,8-hexahydro-4-oxa-1,6-diaza-anthracene-6-carboxylic acid isopropyl ester]: the half-maximal effective concentration (EC50) stood at 1100 nM and the Emax was found to be 33%.

On to `CN1C(=O)C(c2ccc(OCc3ccc(Cl)c(Cl)c3)cc2)Oc2cc3c(cc21)C[C@@H](C(=O)N[C@@H](Cc1ccc(-c2ccc(C#N)cc2)cc1)C(=O)O)N(CC#Cc1ccccc1)C3` (stereo partly drawn) [Example 69, (S)-3-(4′-Cyano-biphenyl-4-yl)-2-{[(S)-3-[4-(3,4-dichloro-benzyloxy)-phenyl]-1-methyl-2-oxo-6-(3-phenyl-prop-2-ynyl)-2,3,5,6,7,8-hexahydro-1H-4-oxa-1,6-diaza-anthracene-7-carbonyl]-amino}-propionic acid], for which the EC50 was determined as 574 nM and the Emax was found to be 51%.

Take `CCC(c1ccccc1)N1Cc2cc3c(cc2C[C@H]1C(=O)N[C@@H](Cc1ccc(-c2ccc(C#N)cc2)cc1)C(=O)O)N(C)C(=O)C(c1ccc(OCc2ccc(Cl)c(Cl)c2)cc1)O3` (stereo partly drawn) [Example 70, (S)-3-(4′-Cyano-biphenyl-4-yl)-2-{[(S)-3-[4-(3,4-dichloro-benzyloxy)-phenyl]-1-methyl-2-oxo-6-(1-phenyl-propyl)-2,3,5,6,7,8-hexahydro-1H-4-oxa-1,6-diaza-anthracene-7-carbonyl]-amino}-propionic acid]: the concentration giving a half-maximal response (EC50) is 988 nM and the Emax worked out at 6.9%.

`CCc1ccccc1CN1Cc2cc3c(cc2C[C@H]1C(=O)N[C@@H](Cc1ccc(-c2ccc(C#N)cc2)cc1)C(=O)O)N(C)C(=O)C(c1ccc(OCc2ccc(Cl)c(Cl)c2)cc1)O3` (stereo partly drawn) [Example 71, (S)-3-(4′-Cyano-biphenyl-4-yl)-2-{[(S)-3-[4-(3,4-dichloro-benzyloxy)-phenyl]-6-(2-ethyl-benzyl)-1-methyl-2-oxo-2,3,5,6,7,8-hexahydro-1H-4-oxa-1,6-diaza-anthracene-7-carbonyl]-amino}-propionic acid]: the EC50 worked out at 793 nM and the Emax turned out to be 49%.

For the molecule `CN1C(=O)C(c2ccc(OCc3ccc(Cl)c(Cl)c3)cc2)Oc2cc3c(cc21)C[C@@H](C(=O)N[C@@H](Cc1ccc(-c2ccc(C#N)cc2)cc1)C(=O)O)N(C1CCCC1)C3` (stereo partly shown) [Example 74], the EC50 came to 327 nM and the Emax was found to be 19%.

In the case of `CN1C(=O)C(c2ccc(OCc3ccc(Cl)c(Cl)c3)cc2)Oc2cc3c(cc21)C[C@@H](C(=O)N[C@@H](Cc1ccc(-c2ccc(C#N)cc2)cc1)C(=O)O)N(C1CCCCC1)C3` (stereo partly drawn) [Example 75, (S)-3-(4′-Cyano-biphenyl-4-yl)-2-({(S)-6-cyclohexyl-3-[4-(3,4-dichloro-benzyloxy)-phenyl]-1-methyl-2-oxo-2,3,5,6,7,8-hexahydro-1H-4-oxa-1,6-diaza-anthracene-7-carbonyl}-amino)-propionic acid], the EC50 worked out at 244 nM and the Emax was determined as 20%.

With `CN1C(=O)C(c2ccc(OCc3ccc(Cl)c(Cl)c3)cc2)Oc2cc3c(cc21)C[C@@H](C(=O)N[C@@H](Cc1ccc(-c2ccc(C#N)cc2)cc1)C(=O)O)N(C1CCC1)C3` (stereo partly drawn) [Example 76, (S)-3-(4′-Cyano-biphenyl-4-yl)-2-({(S)-6-cyclobutyl-3-[4-(3,4-dichloro-benzyloxy)-phenyl]-1-methyl-2-oxo-6(1-phenyl-cyclopentylmethyl)-2,3,5,6,7,8-hexahydro-1H-4-oxa-1,6-diaza-anthracene-7-carbonyl}-amino)-propionic acid], the EC50 came to 1140 nM and the Emax was 8.12%.

Turning to `CN1C(=O)C(c2ccc(OCc3ccc(Cl)c(Cl)c3)cc2)Oc2cc3c(cc21)C[C@@H](C(=O)N[C@@H](Cc1ccc(-c2ccc(C#N)cc2)cc1)C(=O)O)N(CC1(c2ccccc2)CCCC1)C3` (stereo partly drawn) [Example 77, (S)-3-(4′-Cyano-biphenyl-4-yl)-2-{[(S)-3-[4-(3,4-dichloro-benzyloxy)-phenyl]-1-methyl-2-oxo-6-(1-phenyl-cyclopentylmethyl)-2,3,5,6,7,8-hexahydro-1H-4-oxa-1,6-diaza-anthracene-7-carbonyl]-amino}-propionic acid], the EC50 was found to be 1710 nM and the Emax amounted to 53%.

With `CC(c1ccccc1)N1Cc2cc3c(cc2C[C@H]1C(=O)N[C@@H](Cc1ccc(-c2ccc(C#N)cc2)cc1)C(=O)O)N(C)C(=O)C(c1ccc(OCc2ccc(Cl)c(Cl)c2)cc1)O3` (stereo partly drawn) [Example 80, (S)-3-(4′-Cyano-biphenyl-4-yl)-2-{[(S)-3-[4-(3,4-dichloro-benzyloxy)-phenyl]-1-methyl-2-oxo-6-(1-phenyl-ethyl)-2,3,5,6,7,8-hexahydro-1H-4-oxa-1,6-diaza-anthracene-7-carbonyl]-amino}-propionic acid], the EC50 was found to be 66 nM and the Emax stood at 16%.

Take `O=C1Nc2cc3c(cc2OC1c1ccc(OCc2ccc(Cl)c(Cl)c2)cc1)CN(C(=O)c1ccccc1)[C@H](C(=O)N[C@@H](Cc1ccc(-c2ccncc2)cc1)C(=O)O)C3` (stereo partly drawn) [Example 83, (S)-2-({(S)-6-Benzoyl-3-[4-(3,4-dichloro-benzyloxy)-phenyl]-2-oxo-2,3,5,6,7,8-hexahydro-1H-4-oxa-1,6-diaza-anthracene-7-carbonyl}-amino)-3-(4-pyridin-4-yl-phenyl)-propionic acid]: the EC50 is 710 nM and the Emax came out at 18%.

On to `O=C1Nc2cc3c(cc2OC1c1ccc(OCc2ccc(Cl)c(Cl)c2)cc1)CN(C(=O)c1ccccc1)[C@H](C(=O)N[C@@H](Cc1ccc(-c2ccc(Cl)cc2)cc1)C(=O)O)C3` (stereo partly drawn) [Example 84, (S)-2-({(S)-6-Benzoyl-3-[4-(3,4-dichloro-benzyloxy)-phenyl]-2-oxo-2,3,5,6,7,8-hexahydro-1H-4-oxa-1,6-diaza-anthracene-7-carbonyl}-amino)-3-(4′-chloro-biphenyl-4-yl)-propionic acid], for which it took 920 nM to reach a half-maximal effect (EC50) and the Emax was found to be 43%.

Take `Cc1ccc(-c2ccc(C[C@H](NC(=O)[C@@H]3Cc4cc5c(cc4CN3Cc3ccccn3)OC(c3ccc(OCc4ccc(Cl)c(Cl)c4)cc3)C(=O)N5)C(=O)O)cc2)cc1` (stereo partly drawn) [Example 85, (S)-2-({(S)-3-[4-(3,4-Dichloro-benzyloxy)-phenyl]-2-oxo-6-pyridin-2-ylmethyl-2,3,5,6,7,8-hexahydro-1H-4-oxa-1,6-diaza-anthracene-7-carbonyl}-amino)-3-(4′-methyl-biphenyl-4-yl)-propionic acid]: a half-maximal response (EC50) required 2000 nM and the Emax stood at 55%.

Turning to `CC[C@@H](c1ccccc1)N1Cc2cc3c(cc2C[C@H]1C(=O)N[C@@H](Cc1ccc(-c2ccc(C#N)cc2)cc1)C(=O)O)N(C)C(=O)[C@@H](c1ccc(OCc2ccc(Cl)c(Cl)c2)cc1)O3` [Example 86, (S)-3-(4′-Cyano-biphenyl-4-yl)-2-{[(3R,7S)-3-[4-(3,4-dichloro-benzyloxy)-phenyl]-1-methyl-2-oxo-6-((S)-1-phenyl-propyl)-2,3,5,6,7,8-hexahydro-1H-4-oxa-1,6-diaza-anthracene-7-carbonyl]-amino}-propionic acid], the EC50 came to 59.3 nM and the Emax is 58%.

For `CC[C@@H](c1ccccc1)N1Cc2cc3c(cc2C[C@H]1C(=O)N[C@@H](Cc1ccc(-c2ccc(C#N)cc2)cc1)C(=O)O)N(C)C(=O)[C@H](c1ccc(OCc2ccc(Cl)c(Cl)c2)cc1)O3` [Example 87, (S)-3-(4′-Cyano-biphenyl-4-yl)-2-{[(3S,7S)-3-[4-(3,4-dichloro-benzyloxy)-phenyl]-1-methyl-2-oxo-6-((S)-1-phenyl-propyl)-2,3,5,6,7,8-hexahydro-1H-4-oxa-1,6-diaza-anthracene-7-carbonyl]-amino}-propionic acid], the midpoint of the response, the EC50, lay at 64.5 nM and the Emax is 82%.

For `CC[C@@H](c1ccccc1)N1Cc2cc3c(cc2C[C@H]1C(=O)N[C@@H](Cc1ccc(-c2ccc(Cl)cc2)cc1)C(=O)O)N(C)C(=O)[C@@H](c1ccc(OCc2ccc(Cl)c(Cl)c2)cc1)O3` [Example 90, (S)-3-(4′-Chloro-biphenyl-4-yl)-2-{[(3R,7S)-3-[4-(3,4-dichloro-benzyloxy)-phenyl]-1-methyl-2-oxo-6-((S)-1-phenyl-propyl)-2,3,5,6,7,8-hexahydro-1H-4-oxa-1,6-diaza-anthracene-7-carbonyl]-amino}-propionic acid], it took 1230 nM to reach a half-maximal effect (EC50) and the Emax worked out at 43%.

For the molecule `CC[C@@H](c1ccccc1)N1Cc2cc3c(cc2C[C@H]1C(=O)N[C@@H](Cc1ccc(-c2ccc(OC)cc2)cc1)C(=O)O)N(C)C(=O)[C@@H](c1ccc(OCc2ccc(Cl)c(Cl)c2)cc1)O3` [Example 91, (S)-2-{[(3R,7S)-3-[4-(3,4-Dichloro-benzyloxy)-phenyl]-1-methyl-2-oxo-6-((S)-1-phenyl-propyl)-2,3,5,6,7,8-hexahydro-1H-4-oxa-1,6-diaza-anthracene-7-carbonyl]-amino}-3-(4′-methoxy-biphenyl-4-yl)-propionic acid], the EC50 was determined as 725 nM and the Emax amounted to 39%.

Consider `CC[C@@H](c1ccccc1)N1Cc2cc3c(cc2C[C@H]1C(=O)N[C@@H](Cc1ccc(-c2ccc(F)cc2)cc1)C(=O)O)N(C)C(=O)[C@@H](c1ccc(OCc2ccc(Cl)c(Cl)c2)cc1)O3` [Example 92, (S)-2-{[(3R,7S)-3-[4-(3,4-Dichloro-benzyloxy)-phenyl]-1-methyl-2-oxo-6-((S)-1-phenyl-propyl)-2,3,5,6,7,8-hexahydro-1H-4-oxa-1,6-diaza-anthracene-7-carbonyl]-amino}-3-(4′-fluoro-biphenyl-4-yl)-propionic acid], for which the EC50 is 723 nM and the Emax was 30%.
